According to patent US6600069B2, “Benzene tricarboxylic acid derivatives as insulin receptor activators” (Telik, Inc., priority 2000, dated 2003):
Like-named read-outs stand apart in the source and are kept apart here.

Tests used:
[1] = molecular target: T1, β-kinase domain of the human insulin receptor (CKD) (Homo sapiens, UniProt P06213); test: 32P-cytoplasmic kinase domain (CKD) autophosphorylation assay; format: biochemical; settings: 32P incorporated into CKD band, 10 minutes at room temperature, 50 μM ATP; test concentration not given
T1 construct: The complete β-kinase domain of the human insulin receptor (CKD); made in house
Protocol: ^32P-cytoplasmic Kinase Domain (CKD) Autophosphorylation Assay
The complete β-kinase domain of the human insulin receptor (CKD) was expressed in, and purified from, baculovirus. CKD (4.0 μg/ml), in a solution of 29 mM HEPES (pH 7.6), 0.05% Triton X-100, 10 mM MgCl2, 2 mM MnCl2 (50 μl final volume), was combined with 50 μM ATP, and 5 μCi ^32P-ATP (3000 Ci/mmol.). A test compound, or the vehicle (DMSO), was added to a final DMSO concentration of 1%. The mixture was incubated for 10 minutes at room temperature. The reaction was terminated by the addition of 10 μl of 200 mM EDTA. A 30 μl volume was removed, mixed with 5 μl of 6× Laemmeli sodium dodecyl sulfate (SDS) treatment buffer, and heated to 95° C. for 5 minutes. A 20 μl aliquot was then run on an SDS-PAGE gel. The radioactivity incorporated into the CKD band is quantified by phosphorimaging of the gel, or scintillation counting of the excised bands.
The potency of a compound for increasing phosphorylation is expressed as a percentage of the vehicle level.

[2] = system: 3T3 L1 fibroblasts differentiated to adipocytes; test: Glucose transport activity (14C-2-deoxy-D-glucose uptake); format: cell-based
Protocol: Glucose Transport Activity
3T3 L1 fibroblasts (ATCC) were grown in Dulbecco's modified Eagie's medium (DMEM) with 10% fetal bovine serum (FBS). The cells were plated at a density of 3×10^4 cells/well in 24-well plates. Two days after confluence was reached, the cells were treated for 3 days with […] isobutylmethylxanthine (IBMX), 1 μM dexamethasone, and 1.7 μM insulin. The cells were then transferred to DMEM with 10% fresh bovine serum with 1.7 μM insulin for 2 more days. The cells were maintained in DMEM with 10% FBS for an additional 4 days. Finally the cells were serum starved overnight in 0.1% bovine serum albumin (BSA) in DMEM prior to exposure to the test compounds.
The following day, the medium was replaced with 150 mM NaCl, 1.7 mM KCl, 0.9 mM CaCl2, K2HPO4 (pH 7.4) to which was added either the experimental compounds, or their vehicle (DMSO). Insulin or its vehicle (0.01% BSA) was diluted in the assay buffer (containing test compound or vehicle, respectively) to a final concentration of 5.6 nM. After incubation for 30 min at 37° C., 0.5 μCi/ml of ^14C-2-deoxy-D-glucose was added, and the incubation was continued for additional 30 min at 37° C. The cells were then washed 3 times with ice-cold PBS/20 mM glucose and lysed in 250 μl of lysis buffer (50 mM HEPES pH 7.6, 1% Triton X-100) for 30 min at room temperature. Radioactivity in the lysate was quantified by scintillation counting.
Once ^14C-2-deoxy-D-glucose is transported into the cell it is not released. Glucose transport is, therefore, proportional to the amount of radioactivity in the lysate. The concentration of compound necessary to produce an increase in glucose transport greater than the sum of the standard deviation of the vehicle control plus the largest standard deviation of a test sample (generally 150% of the vehicle control) was recorded as the EC (effective concentration) The results of the glucose transport activity assay are shown in Table 2,

[3] = concentration producing increase in glucose transport generally 150% of the vehicle control, insulin 5.6 nM, read-out: Glucose Transport EC (effective concentration)
[4] = Mus musculus, 3T3-L1, concentration producing increase in glucose transport generally 150% of the vehicle control, insulin 5.6 nM, read-out: Glucose Transport EC (effective concentration)
[5] = Mus musculus, 3T3-L1, no EC recorded, not tested above 3.2 μM, insulin 5.6 nM, read-out: Glucose Transport EC (effective concentration), cells printed NT

T1 sequence (P06213 980-1382 limits assumed): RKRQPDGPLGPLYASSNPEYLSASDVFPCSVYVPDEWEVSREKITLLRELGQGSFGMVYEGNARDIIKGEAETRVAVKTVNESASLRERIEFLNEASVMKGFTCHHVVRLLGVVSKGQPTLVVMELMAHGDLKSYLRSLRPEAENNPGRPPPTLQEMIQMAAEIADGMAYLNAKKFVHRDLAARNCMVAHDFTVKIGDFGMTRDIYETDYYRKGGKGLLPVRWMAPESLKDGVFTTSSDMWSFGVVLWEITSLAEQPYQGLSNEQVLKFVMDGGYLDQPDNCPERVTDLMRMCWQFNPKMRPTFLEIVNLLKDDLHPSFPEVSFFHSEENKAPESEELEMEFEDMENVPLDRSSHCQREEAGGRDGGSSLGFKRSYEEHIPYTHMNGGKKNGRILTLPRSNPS

| Molecule | CKD phosphorylation (percentage of the vehicle level) [1] [%] | EC50 [2, 3] [µM] | EC50 [2, 4] [µM] | further results |
| --- | --- | --- | --- | --- |
| 3,5-bis[N-(6-sulfonaphthyl)carbamoyl] benzoic acid [Compound 5] | 115.6 | 10 | – | – |
| O=C(O)c1ccc(NC(=O)c2cc(C(=O)Nc3ccc(C(=O)O)cc3)cc(C(=O)Nc3ccc(C(=O)O)cc3)c2)cc1 [Compound 1, 4-({3,5-bis[N-(4-carboxyphenyl)carbamoyl]phenyl}carbonylamino)benzoic acid] | 103.7 | – | 3.2 | – |
| O=C(Nc1cccc2cc(S(=O)(=O)O)ccc12)c1cc(C(=O)Nc2cccc3cc(S(=O)(=O)O)ccc23)cc(C(=O)Nc2cccc3cc(S(=O)(=O)O)ccc23)c1 [Compound 2, 5-({3,5-bis[N-(6-sulfonaphthyl)carbamoyl]phenyl}carbonylamino)naphthalene-2-sulfonic acid] | 136.8 | 3.2 | – | – |
| O=C(Nc1ccc(S(=O)(=O)O)cc1)c1cc(C(=O)Nc2ccc(S(=O)(=O)O)cc2)cc(C(=O)Nc2ccc(S(=O)(=O)O)cc2)c1 [Compound 3, 4-({3,5-bis[N-(4-sulfophenyl)carbamoyl]phenyl}carbonylamino)benzenesulfonic acid] | 98.9 | – | 3.2 | – |
| O=C(Nc1cccc2ccc(S(=O)(=O)[O-])cc12)c1cc(C(=O)Nc2cccc3ccc(S(=O)(=O)[O-])cc23)cc(C(=O)Nc2cccc3ccc(S(=O)(=O)[O-])cc23)c1.[Na+].[Na+].[Na+] [Compound 4, 8-({3,5-bis[N-(7-sulfonaphthyl)carbamoyl]phenyl}carbonylamino)naphthalene-2-sulfonic acid] | 134.9 | – | – | EC50 ([2]; Mus musculus, 3T3-L1, read-out: Glucose Transport EC (effective concentration)): 3.2 µM |
| O=C(Nc1cccc2c(S(=O)(=O)O)cccc12)c1cc(C(=O)Nc2cccc3c(S(=O)(=O)O)cccc23)cc(C(=O)Nc2cccc3c(S(=O)(=O)O)cccc23)c1 [Compound 6, 5-({3,5-bis[N-(5-sulfonaphthyl)carbamoyl]phenyl}carbonylamino)naphthalene-sulfonic acid] | 122.7 | 3.2 | – | – |
| O=C(Nc1ccc(S(=O)(=O)O)c2ccccc12)c1cc(C(=O)Nc2ccc(S(=O)(=O)O)c3ccccc23)cc(C(=O)Nc2ccc(S(=O)(=O)O)c3ccccc23)c1 [Compound 7, 4-({3,5-bis[N-(4-sulfonaphthyl)carbamoyl]pheny}carbonylamino)naphthalene-sulfonic acid] | 114.1 | 3.2 | – | – |
| O=C(Nc1ccccc1S(=O)(=O)O)c1cc(C(=O)Nc2ccccc2S(=O)(=O)O)cc(C(=O)Nc2ccccc2S(=O)(=O)O)c1 [Compound 8, 2-({3,5-bis[N-(2-sulfophenyl)carbamoyl]phenyl}carbonylamino)benzenesulfonic acid] | 113.2 | – | 3.2 | – |
| O=C(Nc1ccc2ccccc2c1S(=O)(=O)O)c1cc(C(=O)Nc2ccc3ccccc3c2S(=O)(=O)O)cc(C(=O)Nc2ccc3ccccc3c2S(=O)(=O)O)c1 [Compound 9, 2-({3,5-bis[N-(1-sulfo(2-naphthyl))carbamoyl]phenyl}carbonylamino)naphthalene-sulfonic acid] | 98.8 | – | – | EC50 ([2]; no EC recorded, not tested above 3.2 μM, insulin 5.6 nM, read-out: Glucose Transport EC (effective concentration), cells printed NT): > 3.2 µM |
| O=C(Nc1cccc(S(=O)(=O)O)c1)c1cc(C(=O)Nc2cccc(S(=O)(=O)O)c2)cc(C(=O)Nc2cccc(S(=O)(=O)O)c2)c1 [Compound 10, 3-({3,5-bis[N-(3-sulfophenyl)carbamoyl]phenyl}carbonylamino)benzenesulfonic acid] | 92.0 | – | 3.2 | – |
| O=C(Nc1ccc2cc(S(=O)(=O)O)ccc2c1)c1cc(C(=O)Nc2ccc3cc(S(=O)(=O)O)ccc3c2)cc(C(=O)Nc2ccc3cc(S(=O)(=O)O)ccc3c2)c1 [Compound 11, 6-({3,5-bis[N-(6-sulfo(2-naphthyl))carbamoyl]phenyl}carbonylamino)naphthalene-2-sulfonic acid] | 148.2 | – | – | EC50 [2, 5]: > 3.2 µM |
| O=C(Nc1ccc2c(S(=O)(=O)O)cccc2c1)c1cc(C(=O)Nc2ccc3c(S(=O)(=O)O)cccc3c2)cc(C(=O)Nc2ccc3c(S(=O)(=O)O)cccc3c2)c1 [Compound 12, 6-({3,5-bis[N-(5-sulfo(2-naphthyl))carbamoyl]phenyl}carbonylamino)naphthalene-sulfonic acid] | 136.6 | 3.2 | – | – |
| O=C(Nc1ccc2ccc(S(=O)(=O)O)cc2c1)c1cc(C(=O)Nc2ccc3ccc(S(=O)(=O)O)cc3c2)cc(C(=O)Nc2ccc3ccc(S(=O)(=O)O)cc3c2)c1 [Compound 13, 7-({3,5-bis[N-(7-sulfo(2-naphthyl))carbamoyl]phenyl}carbonylamino)naphthalene-2-sulfonic acid] | 125.5 | – | – | EC50 [2, 5]: > 3.2 µM |
| O=C(Nc1ccccc1C(=O)O)c1cc(C(=O)Nc2ccccc2C(=O)O)cc(C(=O)Nc2ccccc2C(=O)O)c1 [Compound 14, 2-({3,5-bis[N-(2-carboxyphenyl)carbamoyl]phenyl}carbonylamino)benzoic acid] | 105.3 | – | – | EC50 [2, 5]: > 3.2 µM |
| O=C(Nc1cccc2cccc(S(=O)(=O)O)c12)c1cc(C(=O)Nc2cccc3cccc(S(=O)(=O)O)c23)cc(C(=O)Nc2cccc3cccc(S(=O)(=O)O)c23)c1 [Compound 15, 8-({3,5-bis[N-(8-sulfonaphthyl)carbamoyl]phenyl}carbonylamino)naphthalene-sulfonic acid] | 156.0 | 3.2 | – | – |
| COC(=O)c1cc(NC(=O)c2cc(C(=O)Nc3cc(C(=O)OC)cc(C(=O)OC)c3)cc(C(=O)Nc3cc(C(=O)OC)cc(C(=O)OC)c3)c2)cc(C(=O)OC)c1 [Compound 16, methyl 3-[(3,5-bis{N-[3,5-bis(methoxycarbonyl)phenyl]carbamoyl}phenyl)-carbonylamino]-5-(methoxycarbonyl)benzoate] | 83.7 | – | 1.6 | – |
| O=C(O)c1ccc(CNC(=O)c2cc(C(=O)NCc3ccc(C(=O)O)cc3)cc(C(=O)NCc3ccc(C(=O)O)cc3)c2)cc1 [Compound 17, 4-{[(3,5-bis{N-[(4-carboxyphenyl)methyl]carbamoyl}phenyl)carbonylamino]-methyl}benzoic acid] | 90.4 | – | 3.2 | – |
| COC(=O)c1cccc(NC(=O)c2cc(C(=O)Nc3cccc(C(=O)OC)c3)cc(C(=O)Nc3cccc(C(=O)OC)c3)c2)c1 [Compound 18, methyl 3-[(3,5-bis{N-[3-(methoxycarbonyl)phenyl]carbamoyl}phenyl)carbonyl-amino]benzoate] | 94.54 | – | 3.2 | – |
| COC(=O)c1ccc(CNC(=O)c2cc(C(=O)NCc3ccc(C(=O)OC)cc3)cc(C(=O)NCc3ccc(C(=O)OC)cc3)c2)cc1 [Compound 19, methyl 4-({[3,5-bis(N-{[4-(methoxycarbonyl)phenyl]methyl}carbamoyl)phenyl]-carbonylamino}methyl)benzoate] | 104.0 | – | – | EC50 [2, 5]: > 3.2 µM |
| COC(=O)c1ccc(NC(=O)c2cc(C(=O)Nc3ccc(C(=O)OC)cc3)cc(C(=O)Nc3ccc(C(=O)OC)cc3)c2)cc1 [Compound 20, methyl 4-[(3,5-bis{N-[4-(methoxycarbonyl)phenyl]carbamoyl}phenyl)carbonyl-amino]benzoate] | 77.4 | – | 3.2 | – |
